Results from US6660320B1, “Process for producing an antioxidant extract from the bearberry plant” (University of Saskatchewan Technologies Inc., priority 1999, dated 2003).

Experiments:
[1] = β-carotene-linoleate model system; conditions: 0.5 mg of BHA per 5 mL emulsion, 50° C., FIG. 1
Method: The antioxidant activity of the bearberry extract was evaluated using a β-carotene-linoleate model system (Miller, 1971). Briefly, 2-mg quantities of β-carotene were dissolved in 10 mL of chloroform. One millilitre of this solution was then pipetted into a small round-bottom flask. After removing the chloroform using a rotary evaporator, 20 mg of purified linoleic acid, 200 mg of Tween 40 emulsifier and 50 mL of aerated, distilled water were added to the flask with vigorous stirring. Aliquots (5 mL) of prepared emulsion were transferred to a series of tubes containing 2 mg of extract or 0.5 mg of BHA. As soon as the emulsion was added to each tube, the zero time absorbance was read at 470 nm (nanometers) against a reagent blank using a spectrophotometer. Subsequent absorbance readings were recorded at 15-minute intervals by keeping the samples in water bath at 50° C. until the color of β-carotene disappeared.

[2] = meat model system, TBARS of cooked comminuted pork
Method: The efficacy of the bearberry extract was tested in a meat model system. Pork cushions were obtained from Mitchell's Gourmet Foods, Ltd. (Saskatoon, SK). The meat was ground two times through a ⅛-inch plate using a Biro grinder/food mixer (AMFG Model 24, Marblehead, Ohio). Pork from the meat block was transferred to Mason jars and mixed with 20% (w/w) distilled water and various additives. Meat systems were thermal processed in an 85° C. thermostated water bath with occasional stirring by a glass rod until an internal temperature of 75±1° C. was reached. The meat systems were cooled to room temperature, homogenized in an Osterizer (Sunbeam Corporation [Canada] Ltd., Toronto, ON) blender for 30 seconds, transferred to Whirl Pak bags (Systems Plus, New Hamburg, ON) and refrigerated at 4° C. until used.
(§1) Thiobarbituric reactive substances (TBARS) were determined for the bearberry extract (Witte et al.,1970, and Bedinghaus and Ockerman, 1995). Briefly, a 5-g portion of each sample was transferred to a stomacher bag in which 50 mL of a 20% (w/v) TCA and 1.6% (v/v) phosphoric acid solution were added. Each sample was stomached (Stomacher Lab-Blender 400, Model BA6021, A. J. Seward, Co., Bury St. Edmunds, UK) for 2 minutes and then 50 mL of cold distilled water were added. After blending for an additional minute, each sample was filtered through Whatman #1 filter paper into a 100-mL volumetric flask. Each flask was filled to mark with distilled water/TCA solution (1:1 v/v) and its contents were mixed well. Five-mL aliquots from each sample were pipetted to polypropylene conical centrifuge tubes (VWR Canlab, Mississauga, ON) to which an equivalent volume of a 0.02 M aqueous TBA reagent was added. Tubes were capped and heated in a boiling water bath for 35 minutes, and then cooled in an ice bath. Absorbance measurements of the pink-colored chromogen were made at 532 nm against a reagent blank using a spectrophotometer. A ‘k’ factor of 20.1 was determined from a calibration curve based on addition of known quantities of the malonaldehyde precursor, 1,1,3,3-tetramethoxypropane, to cooked meat samples prior to extraction and an average recovery of 85.5% was found.

[3] = TBA analysis of cooked pork patties; conditions: 50 ppm TBHQ; 200 ppm bearberry extract; both formulations, stored at 4° C.
Method: as §1, with “Tubes were capped and heated in a boiling water bath for 35 minutes, and then cooled in an ice bath.” left out, “found. […]” for “found.”
TBA reactive substances were determined in cooked pork patties over the course of the study as has been previously described.

SMILES | inhibition of β-carotene consumption throughout the incubation [1] | TBARS Values ([2]; Table 3, 50 ppm, 1 day of storage at 4° C.) | TBARS Values ([2]; Table 3, 50 ppm, 3 days of storage at 4° C.) | TBARS Values ([2]; Table 3, 50 ppm, 5 days of storage at 4° C.) | TBARS Values ([2]; Table 3, 50 ppm, 7 days of storage at 4° C.) | TBARS Values ([2]; Table 3, 50 ppm, 14 days of storage at 4° C.) | TBARS Values ([2]; Table 4, 50 ppm, 1 day of storage at 4° C.) | TBARS Values ([2]; Table 4, 50 ppm, 3 days of storage at 4° C.) | TBARS Values ([2]; Table 4, 50 ppm, 5 days of storage at 4° C.) | TBARS Values ([2]; Table 4, 50 ppm, 7 days of storage at 4° C.) | TBARS Values ([2]; Table 4, 50 ppm, 14 days of storage at 4° C.) | TBA results, lipid oxidation during storage [3]
COc1ccc(O)c(C(C)(C)C)c1 [BHA, butylated hydroxyanisole] | completely inhibited β-carotene consumption | – | – | – | – | – | – | – | – | – | – | –
CC(C)(C)c1cc(O)ccc1O [TBHQ, tert-butylhydroquinone] | – | 0.10 mg malonaldehyde eq./kg sample | 0.10 mg malonaldehyde eq./kg sample | 0.10 mg malonaldehyde eq./kg sample | 0.20 mg malonaldehyde eq./kg sample | 0.34 mg malonaldehyde eq./kg sample | 0.10 mg malonaldehyde eq./kg sample | 0.10 mg malonaldehyde eq./kg sample | 0.10 mg malonaldehyde eq./kg sample | 0.23 mg malonaldehyde eq./kg sample | 0.45 mg malonaldehyde eq./kg sample | retarded lipid oxidation during storage
